Reference: patent US20230085307A1, “PYRIDAZINONE COMPOUND AND HERBICIDE” (NISSAN CHEMICAL CORPORATION, priority 2019, published 2023)

Tests used:
chickweed [1] = experiment: Test Example 4: herbicidal effect by soil treatment (Table 19, symbol P); type: in vivo, common chickweed (Stellaria media); settings: amount of applied herbicide 320 g/ha
In short: (§1)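 Applied as a water-diluted emulsion, the compound was sprayed onto soil covering newly sown seeds. Evaluation came three weeks after application, in a greenhouse held at 25° C. to 30° C.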

velvetleaf [2] = experiment: Test Example 4: herbicidal effect by soil treatment (Table 19, symbol M); type: in vivo, velvetleaf (Abutilon theophrasti); settings: amount of applied herbicide 320 g/ha
In short: as §1

persian speedwell [3] = experiment: Test Example 4: herbicidal effect by soil treatment (Table 19, symbol R); type: in vivo, Persian speedwell (Veronica persica); settings: amount of applied herbicide 320 g/ha
In short: as §1

redroot pigweed [4] = experiment: Test Example 4: herbicidal effect by soil treatment (Table 19, symbol N); type: in vivo, redroot pigweed (Amaranthus retroflexus); settings: amount of applied herbicide 320 g/ha
In short: as §1

barnyard grass [5] = experiment: Test Example 5: herbicidal effect by foliage application, plastic box (Table 20, symbol H); type: in vivo, barnyard grass (Echinochloa crus-galli); settings: foliage application, 320 g/ha, evaluated three weeks after application
In short: (§2)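 Sow seeds spot-wise in sterilized diluvial soil; cover with ~1.5 cm soil. Grow 14 days in greenhouse, 25° C. to 30° C. Spray foliage with emulsion diluted to predetermined amount. Rate effect after 3 weeks.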

persian speedwell [6] = experiment: Test Example 5: herbicidal effect by foliage application, plastic box (Table 20, symbol R); type: in vivo, Persian speedwell (Veronica persica); settings: foliage application, 320 g/ha, evaluated three weeks after application
In short: as §2

Italian ryegrass [7] = experiment: Test Example 5: herbicidal effect by foliage application, plastic box (Table 20, symbol K); type: in vivo, Italian ryegrass (Lolium multiflorum); settings: foliage application, 320 g/ha, evaluated three weeks after application
In short: as §2

green foxtail [8] = experiment: Test Example 4: herbicidal effect by soil treatment (Table 19, symbol G); type: in vivo, green foxtail (Setaria viridis); settings: amount of applied herbicide 320 g/ha
In short: as §1

windgrass [9] = experiment: Test Example 4: herbicidal effect by soil treatment (Table 19, symbol L); type: in vivo, windgrass (Apera spica-venti); settings: amount of applied herbicide 320 g/ha
In short: as §1

lambsquarters [10] = experiment: Test Example 4: herbicidal effect by soil treatment (Table 19, symbol O); type: in vivo, lambsquarters (Chenopodium album); settings: amount of applied herbicide 320 g/ha
In short: as §1

chickweed [11] = experiment: Test Example 5: herbicidal effect by foliage application, plastic box (Table 20, symbol P); type: in vivo, common chickweed (Stellaria media); settings: foliage application, 320 g/ha, evaluated three weeks after application
In short: as §2

blackgrass [12] = experiment: Test Example 4: herbicidal effect by soil treatment (Table 19, symbol J); type: in vivo, blackgrass (Alopecurus myosuroides); settings: amount of applied herbicide 320 g/ha
In short: as §1

windgrass [13] = experiment: Test Example 5: herbicidal effect by foliage application, plastic box (Table 20, symbol L); type: in vivo, windgrass (Apera spica-venti); settings: foliage application, 320 g/ha, evaluated three weeks after application
In short: as §2

Italian ryegrass [14] = experiment: Test Example 4: herbicidal effect by soil treatment (Table 19, symbol K); type: in vivo, Italian ryegrass (Lolium multiflorum); settings: amount of applied herbicide 320 g/ha
In short: as §1

green foxtail [15] = experiment: Test Example 5: herbicidal effect by foliage application, plastic box (Table 20, symbol G); type: in vivo, green foxtail (Setaria viridis); settings: foliage application, 320 g/ha, evaluated three weeks after application
In short: as §2

wild oat [16] = experiment: Test Example 4: herbicidal effect by soil treatment (Table 19, symbol I); type: in vivo, wild oat (Avena fatua); settings: amount of applied herbicide 320 g/ha
In short: as §1

redroot pigweed [17] = experiment: Test Example 5: herbicidal effect by foliage application, plastic box (Table 20, symbol N); type: in vivo, redroot pigweed (Amaranthus retroflexus); settings: foliage application, 320 g/ha, evaluated three weeks after application
In short: as §2

southern crabgrass [18] = experiment: Test Example 5: herbicidal effect by foliage application, plastic box (Table 20, symbol F); type: in vivo, southern crabgrass (Digitaria ciliaris); settings: foliage application, 320 g/ha, evaluated three weeks after application
In short: as §2

blackgrass [19] = experiment: Test Example 5: herbicidal effect by foliage application, plastic box (Table 20, symbol J); type: in vivo, blackgrass (Alopecurus myosuroides); settings: foliage application, 320 g/ha, evaluated three weeks after application
In short: as §2

barnyard grass [20] = experiment: Test Example 4: herbicidal effect by soil treatment (Table 19, symbol H); type: in vivo, barnyard grass (Echinochloa crus-galli); settings: amount of applied herbicide 320 g/ha
In short: as §1

wild oat [21] = experiment: Test Example 5: herbicidal effect by foliage application, plastic box (Table 20, symbol I); type: in vivo, wild oat (Avena fatua); settings: foliage application, 320 g/ha, evaluated three weeks after application
In short: as §2

velvetleaf [22] = experiment: Test Example 5: herbicidal effect by foliage application, plastic box (Table 20, symbol M); type: in vivo, velvetleaf (Abutilon theophrasti); settings: foliage application, 320 g/ha, evaluated three weeks after application
In short: as §2

southern crabgrass [23] = experiment: Test Example 4: herbicidal effect by soil treatment (Table 19, symbol F); type: in vivo, southern crabgrass (Digitaria ciliaris); settings: amount of applied herbicide 320 g/ha
In short: as §1

lambsquarters [24] = experiment: Test Example 5: herbicidal effect by foliage application, plastic box (Table 20, symbol O); type: in vivo, lambsquarters (Chenopodium album); settings: foliage application, 320 g/ha, evaluated three weeks after application
In short: as §2

| SMILES | P: chickweed, herbicidal effect rating (chickweed [1]) | M: velvetleaf, herbicidal effect rating (velvetleaf [2]) | R: persian speedwell, herbicidal effect rating (persian speedwell [3]) | N: redroot pigweed, herbicidal effect rating (redroot pigweed [4]) | G: green foxtail, herbicidal effect rating (green foxtail [8]) | L: windgrass, herbicidal effect rating (windgrass [9]) | O: lambsquarters, herbicidal effect rating (lambsquarters [10]) | J: blackgrass, herbicidal effect rating (blackgrass [12]) | K: Italian ryegrass, herbicidal effect rating (Italian ryegrass [14]) | I: wild oat, herbicidal effect rating (wild oat [16]) | H: barnyard grass, herbicidal effect rating (barnyard grass [20]) | F: southern crabgrass, herbicidal effect rating (southern crabgrass [23]) | also measured |
| --- | --- | --- | --- | --- | --- | --- | --- | --- | --- | --- | --- | --- | --- |
| COc1ccc(-c2sc3ccc(C)cc3c2-c2c(O)c(C)nn(C)c2=O)cc1 [2-140] | 0 (Herbicidal rate of 5% or less (almost no effect)) | 3 (Herbicidal rate of 40% or more and less than 70%) | 3 (Herbicidal rate of 40% or more and less than 70%) | 2 (Herbicidal rate of 20% or more and less than 40%) | 0 (Herbicidal rate of 5% or less (almost no effect)) | 0 (Herbicidal rate of 5% or less (almost no effect)) | 0 (Herbicidal rate of 5% or less (almost no effect)) | 0 (Herbicidal rate of 5% or less (almost no effect)) | 0 (Herbicidal rate of 5% or less (almost no effect)) | 0 (Herbicidal rate of 5% or less (almost no effect)) | 0 (Herbicidal rate of 5% or less (almost no effect)) | 0 (Herbicidal rate of 5% or less (almost no effect)) | herbicidal effect on H: barnyard grass (barnyard grass [5]): 0 (Herbicidal rate of 5% or less (almost no effect)); herbicidal effect on R: persian speedwell (persian speedwell [6]): 5 (Herbicidal rate of 90% or more (almost completely withered)); herbicidal effect on K: Italian ryegrass (Italian ryegrass [7]): 0 (Herbicidal rate of 5% or less (almost no effect)); herbicidal effect on P: chickweed (chickweed [11]): 4 (Herbicidal rate of 70% or more and less than 90%); herbicidal effect on L: windgrass (windgrass [13]): 0 (Herbicidal rate of 5% or less (almost no effect)); herbicidal effect on G: green foxtail (green foxtail [15]): 0 (Herbicidal rate of 5% or less (almost no effect)); herbicidal effect on N: redroot pigweed (redroot pigweed [17]): 3 (Herbicidal rate of 40% or more and less than 70%); herbicidal effect on F: southern crabgrass (southern crabgrass [18]): 0 (Herbicidal rate of 5% or less (almost no effect)); herbicidal effect on J: blackgrass (blackgrass [19]): 0 (Herbicidal rate of 5% or less (almost no effect)); herbicidal effect on I: wild oat (wild oat [21]): 0 (Herbicidal rate of 5% or less (almost no effect)); herbicidal effect on M: velvetleaf (velvetleaf [22]): 4 (Herbicidal rate of 70% or more and less than 90%); herbicidal effect on O: lambsquarters (lambsquarters [24]): 3 (Herbicidal rate of 40% or more and less than 70%) |
| CCCC(=O)Oc1c(C)nn(C)c(=O)c1-c1c(-c2ccc(OC)cc2)sc2ccc(C)cc12 [2-141] | 0 (Herbicidal rate of 5% or less (almost no effect)) | 0 (Herbicidal rate of 5% or less (almost no effect)) | 2 (Herbicidal rate of 20% or more and less than 40%) | 0 (Herbicidal rate of 5% or less (almost no effect)) | 0 (Herbicidal rate of 5% or less (almost no effect)) | 0 (Herbicidal rate of 5% or less (almost no effect)) | 0 (Herbicidal rate of 5% or less (almost no effect)) | 0 (Herbicidal rate of 5% or less (almost no effect)) | 0 (Herbicidal rate of 5% or less (almost no effect)) | 0 (Herbicidal rate of 5% or less (almost no effect)) | 0 (Herbicidal rate of 5% or less (almost no effect)) | 0 (Herbicidal rate of 5% or less (almost no effect)) | herbicidal effect on H: barnyard grass (criteria 0-5) (barnyard grass [5]): 0 (Herbicidal rate of 5% or less (almost no effect)); herbicidal effect on R: persian speedwell (criteria 0-5) (persian speedwell [6]): 5 (Herbicidal rate of 90% or more (almost completely withered)); herbicidal effect on K: Italian ryegrass (criteria 0-5) (Italian ryegrass [7]): 0 (Herbicidal rate of 5% or less (almost no effect)); herbicidal effect on P: chickweed (criteria 0-5) (chickweed [11]): 5 (Herbicidal rate of 90% or more (almost completely withered)); herbicidal effect on L: windgrass (criteria 0-5) (windgrass [13]): 0 (Herbicidal rate of 5% or less (almost no effect)); herbicidal effect on G: green foxtail (criteria 0-5) (green foxtail [15]): 0 (Herbicidal rate of 5% or less (almost no effect)); herbicidal effect on N: redroot pigweed (criteria 0-5) (redroot pigweed [17]): 0 (Herbicidal rate of 5% or less (almost no effect)); herbicidal effect on F: southern crabgrass (criteria 0-5) (southern crabgrass [18]): 0 (Herbicidal rate of 5% or less (almost no effect)); herbicidal effect on J: blackgrass (criteria 0-5) (blackgrass [19]): 0 (Herbicidal rate of 5% or less (almost no effect)); herbicidal effect on I: wild oat (criteria 0-5) (wild oat [21]): 0 (Herbicidal rate of 5% or less (almost no effect)); herbicidal effect on M: velvetleaf (criteria 0-5) (velvetleaf [22]): 0 (Herbicidal rate of 5% or less (almost no effect)); herbicidal effect on O: lambsquarters (criteria 0-5) (lambsquarters [24]): 0 (Herbicidal rate of 5% or less (almost no effect)) |
